Results: patent US20260250318A1, “COMPOSITIONS AND METHODS FOR CROSSING THE BLOOD BRAIN BARRIER” (VOYAGER THERAPEUTICS, INC., priority 2022, published 2026)

Legend:
Details in all cases: synthetic library passage 3, intravenous, relative to wild-type AAV9
brain [1] = test: NGS fold enrichment of synthetic library (passage 3) in BALB/c mice, first cross-species screen; type: in vivo
Description: (§1) After creation of the synthetic library with the sub-selected variants, the synthetic library was screened (passage 3) in two NHPs (2-4 years of age) and two strains of mice, BALB/c (n=3, 6-8 weeks of age) and C57Bl/6 mice (n=3, 6-8 weeks of age), in a first cross-species evolution screen. The animals were injected intravenously with the synthetic library. After a period in vivo, (e.g., 28-days) RNA was extracted from nervous tissue, e.g., brain, spinal cord, and DRG of the NHPs and the brains of mice. Following RNA recovery and RT-PCR amplification, a systematic NGS enrichment analysis was performed, and the peptides comprised within the variants were identified and the capsid enrichment ratio for each variant compared to the wild-type AAV9 control was calculated (fold enrichment relative to wild-type AAV9) (Table 9). […] All animals were dosed intravenously at […] across the screen.

brain [2] = test: NGS fold enrichment of synthetic library (passage 3) in C57Bl/6 mice, first cross-species screen; type: in vivo
Description: as §1

[3] = tested on: brain, spinal cord, and DRG of the NHPs; test: NGS fold enrichment of synthetic library (passage 3) in NHPs, first cross-species screen; type: in vivo, cynomolgus macaques (Macaca fascicularis)
Description: as §1

[4] = RNA from brain of BALB/c mice, NGS
[5] = RNA from brain of C57Bl/6 mice, NGS
[6] = RNA from spinal cord of NHPs, NGS

| Sequence | Fold enrichment over AAV9 in the brain of Mice (BALB/c) (brain [1]; RNA NGS, brain of BALB/c mice) [fold] | Fold enrichment over AAV9 in the brain of Mice (C57Bl/6) (brain [2]; RNA NGS, brain of C57Bl/6 mice) [fold] | Fold enrichment over AAV9 in the brain of NHPs ([3]; RNA NGS, brain of NHPs) [fold] | Fold enrichment over AAV9 in the spinal cord of NHPs ([3]; RNA NGS, spinal cord of NHPs) [fold] | Fold enrichment over AAV9 in the brain of Mice (BALB/c) (brain [1]; [4]) [fold] | Fold enrichment over AAV9 in the brain of Mice (C57Bl/6) (brain [2]; [5]) [fold] | Fold enrichment over AAV9 in the brain of NHPs ([3]; RNA from brain of NHPs, NGS) [fold] | Fold enrichment over AAV9 in the spinal cord of NHPs [3, 6] [fold] |
| --- | --- | --- | --- | --- | --- | --- | --- | --- |
| GSGLAHLGGQNQQT | 0.794 | 0.749 | 1.064 | 2.191 | – | – | – | – |
| GSGSQLMSLQNQQT | 0.172 | 0.563 | 2.065 | 3.559 | – | – | – | – |
| GSGQNQDHQNKQQT | – | – | – | – | 0.761 | 0.510 | 1.308 | 1.470 |
| GSGQNQQTSPHNHT | 0.845 | 1.524 | 2.761 | 3.132 | – | – | – | – |
| GSGTHLVSLQNQQT | – | – | – | – | 1.167 | 0.715 | 1.392 | 0.000 |
| GSGQNQQTTASSHT | 0.678 | 0.745 | 1.618 | 7.404 | – | – | – | – |
| GSVHLSVTGQNQQT | 0.282 | 0.741 | 2.882 | 1.157 | – | – | – | – |
| GRGQHVSVANNQQT | – | – | – | – | 0.589 | 1.032 | 1.152 | 1.896 |
| GSGQASSKSANQQT | – | – | – | – | 0.175 | 0.500 | 1.339 | 1.138 |
| GSGIIPVSSQNQQT | 0.253 | 0.642 | 6.352 | 0.000 | – | – | – | – |
| GSGGTSVHQQNQQT | 0.195 | 0.585 | 1.629 | 0.000 | – | – | – | – |
| GSGYVITGSQNQQT | – | – | – | – | 0.248 | 0.971 | 1.125 | 6.271 |
| GSGQNQQTMLGKPC | – | – | – | – | 0.992 | 1.090 | 1.125 | 0.047 |
| GRGQIYSTGGNQQT | 0.743 | 1.329 | 2.210 | 11.629 | – | – | – | – |
| GSGQNSGVHFNQQT | – | – | – | – | 0.377 | 0.871 | 1.268 | 0.587 |
| GNSSMMGSGQNQQT | – | – | – | – | 0.364 | 0.656 | 1.239 | 3.856 |
| GSIQYQSSGQNQQT | – | – | – | – | 1.191 | 1.074 | 1.147 | 2.601 |
| GSSGSHQYGQNQQT | – | – | – | – | 0.794 | 1.129 | 1.155 | 0.000 |
| GSGRLVPNGPNQQT | 0.411 | 0.639 | 2.314 | 3.925 | – | – | – | – |
